Measurements taken from PubChem BioAssay (NCI).
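Step 1: Grow cells in 96-well plates. Step 2: Expose to compound for 48 hours at 5 concentrations. Step 3: Interpolate endpoints linearly; if unreached, use highest concentration. TGI: concentration producing complete growth inhibition.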

Key:
Assay in all cases: NCI anticancer screen, dose series, 48 h
[1] = test system: 786-0 renal
[2] = test system: A498 renal
[3] = test system: A549 NSCLC
[4] = test system: ACHN renal
[5] = test system: BT-549 breast
[6] = test system: CAKI-1 renal
[7] = test system: CCRF-CEM leukemia
[8] = test system: COLO 205 colon
[9] = test system: DU-145 prostate
[10] = test system: EKVX NSCLC
[11] = test system: HCT-116 colon
[12] = test system: HCT-15 colon
[13] = test system: HOP-62 NSCLC
[14] = test system: HOP-92 NSCLC
[15] = test system: HS 578T breast
[16] = test system: HT29 colon
[17] = test system: IGROV1 ovarian
[18] = test system: K-562 leukemia
[19] = test system: KM12 colon
[20] = test system: LOX IMVI melanoma
[21] = test system: M14 melanoma
[22] = test system: MALME-3M melanoma
[23] = test system: MCF7 breast
[24] = test system: MDA-MB-231 breast
[25] = test system: MDA-MB-435
[26] = test system: MDA-N
[27] = test system: MOLT-4 leukemia
[28] = test system: NCI-H23 lung
[29] = test system: NCI-H460 lung
[30] = test system: NCI-H522 lung
[31] = test system: NCI/ADR-RES ovarian
[32] = test system: OVCAR-3 ovarian
[33] = test system: OVCAR-4 ovarian
[34] = test system: OVCAR-5 ovarian
[35] = test system: OVCAR-8 ovarian
[36] = test system: PC-3 prostate
[37] = test system: RPMI-8226 leukemia
[38] = test system: RXF 393 renal
[39] = test system: SF-268 CNS
[40] = test system: SF-295 CNS
[41] = test system: SF-539 CNS
[42] = test system: SK-MEL-2 melanoma
[43] = test system: SK-MEL-28 melanoma
[44] = test system: SK-MEL-5 melanoma
[45] = test system: SK-OV-3 ovarian
[46] = test system: SN12C renal
[47] = test system: SNB-19 CNS
[48] = test system: SNB-75 CNS
[49] = test system: SR leukemia
[50] = test system: SW-620 colon
[51] = test system: T-47D breast
[52] = test system: TK-10 renal
[53] = test system: U251 CNS
[54] = test system: UACC-257 melanoma
[55] = test system: UACC-62 melanoma
[56] = test system: UO-31 renal
[57] = test system: HL-60(TB) leukemia
[58] = test system: NCI-H226 lung

Oc1cc(CN2COc3ccccc32)c(O)cc1CNC1CCCCC1
TGI [1]: 34 µM | TGI [2]: 49.9 µM | TGI [3]: > 100 µM | TGI [4]: 78.5 µM | TGI [5]: 90.9 µM | TGI [6]: 67.5 µM | TGI [7]: > 100 µM | TGI [8]: 31.2 µM | TGI [9]: > 100 µM | TGI [10]: 36.3 µM | TGI [11]: 35.3 µM | TGI [12]: 47.6 µM | TGI [13]: > 100 µM | TGI [14]: 75.4 µM | TGI [15]: > 100 µM | TGI [16]: 52.3 µM | TGI [17]: > 100 µM | TGI [18]: 52.9 µM | TGI [19]: > 100 µM | TGI [20]: 31.6 µM | TGI [21]: > 100 µM | TGI [22]: 38.2 µM | TGI [23]: 42.7 µM | TGI [24]: 41.8 µM | TGI [25]: 60.1 µM | TGI [26]: 32.2 µM | TGI [27]: 39.3 µM | TGI [28]: 64.5 µM | TGI [29]: 32.3 µM | TGI [30]: 27.8 µM | TGI [31]: > 100 µM | TGI [32]: > 100 µM | TGI [33]: 52.2 µM | TGI [34]: > 100 µM | TGI [35]: 57.5 µM | TGI [36]: 42 µM | TGI [37]: 64.5 µM | TGI [38]: 71.8 µM | TGI [39]: 33.6 µM | TGI [40]: > 100 µM | TGI [41]: 34.6 µM | TGI [42]: 50 µM | TGI [43]: 45 µM | TGI [44]: 35.2 µM | TGI [45]: > 100 µM | TGI [46]: > 100 µM | TGI [47]: > 100 µM | TGI [48]: 38.9 µM | TGI [49]: 49.7 µM | TGI [50]: > 100 µM | TGI [51]: 64.7 µM | TGI [52]: 38 µM | TGI [53]: 32.5 µM | TGI [54]: 30.6 µM | TGI [55]: 55.1 µM | TGI [56]: > 100 µM

Cn1c(-c2ccc(N=NNc3ccc(-c4n[nH]c(=S)n4C)cc3)cc2)n[nH]c1=S
TGI [1]: > 100 µM | TGI [2]: > 100 µM | TGI [3]: > 100 µM | TGI [4]: 3.93 µM | TGI [5]: 12.6 µM | TGI [7]: > 100 µM | TGI [8]: > 100 µM | TGI [9]: 30.6 µM | TGI [10]: > 100 µM | TGI [11]: > 100 µM | TGI [12]: > 100 µM | TGI [57]: > 100 µM | TGI [13]: 69.4 µM | TGI [14]: 8.84 µM | TGI [15]: > 100 µM | TGI [16]: > 100 µM | TGI [17]: 46.4 µM | TGI [18]: > 100 µM | TGI [20]: > 100 µM | TGI [21]: > 100 µM | TGI [22]: > 100 µM | TGI [23]: > 100 µM | TGI [24]: 43.4 µM | TGI [25]: > 100 µM | TGI [26]: > 100 µM | TGI [27]: > 100 µM | TGI [58]: 48.8 µM | TGI [28]: > 100 µM | TGI [30]: > 100 µM | TGI [31]: > 100 µM | TGI [32]: > 100 µM | TGI [33]: > 100 µM | TGI [34]: > 100 µM | TGI [35]: 23.4 µM | TGI [36]: > 100 µM | TGI [38]: 32.6 µM | TGI [39]: > 100 µM | TGI [40]: > 100 µM | TGI [42]: > 100 µM | TGI [43]: > 100 µM | TGI [44]: 48.1 µM | TGI [45]: 54.9 µM | TGI [46]: > 100 µM | TGI [47]: 70.2 µM | TGI [48]: 35.1 µM | TGI [49]: > 100 µM | TGI [50]: > 100 µM | TGI [51]: 8.28 µM | TGI [52]: > 100 µM | TGI [53]: 28.9 µM | TGI [54]: > 100 µM
